Publication PMC8071193, “Dual-Target Compounds against Type 2 Diabetes Mellitus: Proof of Concept for Sodium Dependent Glucose Transporter (SGLT) and Glycogen Phosphorylase (GP) Inhibitors” (Pharmaceuticals, 2021)

These molecules were tested against T1, SGLT2 (Homo sapiens, UniProt P31639) (assay: SGLT2 inhibition, 2-NBDG glucose uptake in SGLT2-overexpressing TSA201 cells). Settings: not given.
T1 construct: host or cells: TSA201 (Human Embryonal Kidney) cells, lentiviral transduction, puromycin selection
T1 sequence (P31639 1-672): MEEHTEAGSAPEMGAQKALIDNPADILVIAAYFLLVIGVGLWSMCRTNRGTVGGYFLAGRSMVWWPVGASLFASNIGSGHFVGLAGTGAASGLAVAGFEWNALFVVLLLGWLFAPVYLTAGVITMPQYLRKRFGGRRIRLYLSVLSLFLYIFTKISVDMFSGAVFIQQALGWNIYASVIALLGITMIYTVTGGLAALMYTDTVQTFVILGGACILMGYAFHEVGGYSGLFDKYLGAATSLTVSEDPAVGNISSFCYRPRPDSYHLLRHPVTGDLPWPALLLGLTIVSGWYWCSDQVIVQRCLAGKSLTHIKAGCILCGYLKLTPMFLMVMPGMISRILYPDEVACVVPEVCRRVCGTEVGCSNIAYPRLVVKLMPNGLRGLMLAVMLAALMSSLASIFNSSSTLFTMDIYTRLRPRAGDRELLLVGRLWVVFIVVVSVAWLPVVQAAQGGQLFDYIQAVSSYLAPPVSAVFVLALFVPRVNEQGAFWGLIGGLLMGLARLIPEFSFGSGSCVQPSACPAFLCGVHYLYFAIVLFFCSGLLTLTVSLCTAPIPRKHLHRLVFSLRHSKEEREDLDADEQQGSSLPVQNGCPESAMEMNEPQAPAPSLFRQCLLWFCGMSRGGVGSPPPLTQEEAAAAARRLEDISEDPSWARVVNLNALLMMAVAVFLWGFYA
Type: cell-based

Q: For `OC[C@H]1O[C@@H](c2noc(Cc3ccccc3)n2)[C@H](O)[C@@H](O)[C@@H]1O` [10a, 5-Benzyl-3-(β-D-glucopyranosyl)-1,2,4-oxadiazole], which IC50 is on record?
A: 3.68 ± 0.59 µM

Q: With `OC[C@H]1O[C@@H](c2nnc(Cc3ccccc3)o2)[C@H](O)[C@@H](O)[C@@H]1O` [13a, 5-Benzyl-2-(β-D-glucopyranosyl)-1,3,4-oxadiazole] as the molecule, how does the IC50 read?
A: 2.21 ± 0.58 µM

Q: Which IC50 does the source give for `OC[C@H]1O[C@@H](c2nccc(Cc3ccccc3)n2)[C@H](O)[C@@H](O)[C@@H]1O` [16a, 4-Benzyl-2-(β-D-glucopyranosyl)pyrimidine] here?
A: 17 ± 3.16 µM

Q: How did the IC50 turn out when `COc1ccc(Cc2ccnc([C@@H]3O[C@H](CO)[C@@H](O)[C@H](O)[C@H]3O)n2)cc1` [16b, 2-(β-D-Glucopyranosyl)-4-(4-methoxybenzyl)pyrimidine] was run?
A: 11.6 ± 3.19 µM

Q: `OC[C@H]1O[C@@H](c2nc(Cc3ccccc3)n[nH]2)[C@H](O)[C@@H](O)[C@@H]1O` [19a] was tested. Which IC50 did it give?
A: 71.7 ± 10.6 µM

Same assay, conditions: 19a vs. 10a and 13a

Q: With `OC[C@H]1O[C@@H](c2nc(Cc3ccccc3)n[nH]2)[C@H](O)[C@@H](O)[C@@H]1O` [19a] as the molecule, how does the “fold weakening in the SGLT2 inhibition” value read?
A: 20-30 fold

Same assay, conditions: TSA201 cells, up to 1000 µM

Q: `OC[C@H]1O[C@@H](c2noc(Cc3ccccc3)n2)[C@H](O)[C@@H](O)[C@@H]1O` [10a, 5-Benzyl-3-(β-D-glucopyranosyl)-1,2,4-oxadiazole] was tested. Which “SGLT2 inhibition (in words)” value did it give?
A: showed inhibitory effects

Q: For `OC[C@H]1O[C@@H](c2nnc(Cc3ccccc3)o2)[C@H](O)[C@@H](O)[C@@H]1O` [13a, 5-Benzyl-2-(β-D-glucopyranosyl)-1,3,4-oxadiazole], which “SGLT2 inhibition (in words)” value is on record?
A: showed inhibitory effects

Q: `OC[C@H]1O[C@@H](c2nccc(Cc3ccccc3)n2)[C@H](O)[C@@H](O)[C@@H]1O` [16a, 4-Benzyl-2-(β-D-glucopyranosyl)pyrimidine] was tested. Which “SGLT2 inhibition (in words)” value did it give?
A: inhibitory activity in the micromolar range

Q: `COc1ccc(Cc2ccnc([C@@H]3O[C@H](CO)[C@@H](O)[C@H](O)[C@H]3O)n2)cc1` [16b, 2-(β-D-Glucopyranosyl)-4-(4-methoxybenzyl)pyrimidine] was tested. Which “SGLT2 inhibition (in words)” value did it give?
A: inhibitory activity in the micromolar range

The molecules below were run against T2, SGLT1 (Homo sapiens, UniProt P13866) (assay: SGLT1 inhibition, 2-NBDG glucose uptake in SGLT1-overexpressing TSA201 cells). Settings: not given.
T2 construct: host or cells: TSA201 (Human Embryonal Kidney) cells, lentiviral transduction, puromycin selection
T2 sequence (P13866 1-664): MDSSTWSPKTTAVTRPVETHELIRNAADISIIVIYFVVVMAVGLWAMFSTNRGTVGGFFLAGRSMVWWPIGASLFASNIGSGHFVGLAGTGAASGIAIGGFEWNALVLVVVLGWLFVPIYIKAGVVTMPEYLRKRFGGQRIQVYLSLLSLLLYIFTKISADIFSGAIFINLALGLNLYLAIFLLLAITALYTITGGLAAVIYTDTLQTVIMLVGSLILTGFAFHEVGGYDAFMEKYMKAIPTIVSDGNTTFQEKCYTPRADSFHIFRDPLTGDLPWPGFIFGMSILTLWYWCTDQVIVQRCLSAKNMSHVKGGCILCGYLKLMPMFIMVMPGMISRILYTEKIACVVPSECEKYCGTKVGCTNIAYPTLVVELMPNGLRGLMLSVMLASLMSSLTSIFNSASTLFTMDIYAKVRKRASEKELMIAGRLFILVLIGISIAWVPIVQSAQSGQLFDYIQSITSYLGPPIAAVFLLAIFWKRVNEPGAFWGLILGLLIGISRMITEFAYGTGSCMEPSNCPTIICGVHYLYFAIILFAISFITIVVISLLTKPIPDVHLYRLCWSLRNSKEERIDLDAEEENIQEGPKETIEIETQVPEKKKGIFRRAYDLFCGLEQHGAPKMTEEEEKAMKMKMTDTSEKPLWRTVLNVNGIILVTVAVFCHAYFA
Type: cell-based

Q: For `OC[C@H]1O[C@@H](c2noc(Cc3ccccc3)n2)[C@H](O)[C@@H](O)[C@@H]1O` [10a, 5-Benzyl-3-(β-D-glucopyranosyl)-1,2,4-oxadiazole], which IC50 is on record?
A: 20.7 ± 7.66 µM

Q: Which IC50 does the source give for `OC[C@H]1O[C@@H](c2nnc(Cc3ccccc3)o2)[C@H](O)[C@@H](O)[C@@H]1O` [13a, 5-Benzyl-2-(β-D-glucopyranosyl)-1,3,4-oxadiazole] here?
A: 23.7 ± 6.14 µM

Q: With `OC[C@H]1O[C@@H](c2nccc(Cc3ccccc3)n2)[C@H](O)[C@@H](O)[C@@H]1O` [16a, 4-Benzyl-2-(β-D-glucopyranosyl)pyrimidine] as the molecule, how does the IC50 read?
A: 18 ± 3.92 µM

Q: For `OC[C@H]1O[C@@H](c2nc(Cc3ccccc3)n[nH]2)[C@H](O)[C@@H](O)[C@@H]1O` [19a], which IC50 is on record?
A: 19.6 ± 7.26 µM

Same assay, conditions: Table 2; TSA-201 cells; NI: no inhibition at 1000 µM; compounds 1-2 used as controls for in-house assay

Q: With `COc1ccc(Cc2ccnc([C@@H]3O[C@H](CO)[C@@H](O)[C@H](O)[C@H]3O)n2)cc1` [16b, 2-(β-D-Glucopyranosyl)-4-(4-methoxybenzyl)pyrimidine] as the molecule, how does the IC50 read?
A: > 1000 µM

What follows are molecules tested against T3, rabbit muscle glycogen phosphorylase b (rmGPb) (Oryctolagus cuniculus, UniProt P00489) (assay: Glycogen phosphorylase b enzyme kinetic inhibition assay (direction of glycogen synthesis)). Settings: Table 2; NI: no inhibition at 625 µM.
T3 construct: Glycogen phosphorylase b was isolated from rabbit skeletal muscle; from tissue; host or cells: rabbit skeletal muscle
T3 sequence (P00489 1-843): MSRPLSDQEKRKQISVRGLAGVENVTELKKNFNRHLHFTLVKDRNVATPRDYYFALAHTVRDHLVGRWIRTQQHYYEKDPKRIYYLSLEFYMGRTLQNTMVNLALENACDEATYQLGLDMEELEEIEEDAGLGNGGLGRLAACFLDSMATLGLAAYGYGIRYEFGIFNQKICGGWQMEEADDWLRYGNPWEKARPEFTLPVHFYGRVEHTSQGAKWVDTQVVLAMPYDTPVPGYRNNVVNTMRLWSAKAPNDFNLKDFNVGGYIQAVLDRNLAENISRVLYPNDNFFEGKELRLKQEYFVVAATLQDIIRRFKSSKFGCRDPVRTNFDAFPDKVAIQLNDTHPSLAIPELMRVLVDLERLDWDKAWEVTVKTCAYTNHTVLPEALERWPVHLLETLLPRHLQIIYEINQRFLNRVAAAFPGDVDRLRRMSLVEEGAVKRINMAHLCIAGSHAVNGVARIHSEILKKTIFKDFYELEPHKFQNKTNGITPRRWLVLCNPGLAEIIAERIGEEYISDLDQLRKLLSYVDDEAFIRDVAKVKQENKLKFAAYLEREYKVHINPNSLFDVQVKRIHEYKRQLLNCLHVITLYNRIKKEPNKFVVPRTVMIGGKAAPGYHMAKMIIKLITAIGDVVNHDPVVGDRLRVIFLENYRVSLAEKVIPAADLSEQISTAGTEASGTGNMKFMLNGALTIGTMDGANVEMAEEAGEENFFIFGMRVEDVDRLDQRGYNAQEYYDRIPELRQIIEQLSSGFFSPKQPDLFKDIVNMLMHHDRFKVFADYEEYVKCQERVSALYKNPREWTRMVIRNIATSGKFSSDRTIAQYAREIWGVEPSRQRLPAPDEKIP
Type: biochemical
Text: The 2-NBDG (2-deoxy-2-[(7-nitro-2,1,3-benzoxadiazol-4-yl)amino]-D-glucose, cat. 11046) was purchased from Cayman Chemical Company (Ann Arbor, MI, USA). Lentivirus for SLC5A1 and SLC5A2 (NM_000343 for SGLT1, and NM-003041 for SGLT2) were obtained from Origene (Rockville, MD, USA). These expression vectors contain a puromycin resistance gene. […] CyQUANT^TM Cell Proliferation Assay Kit (2036547) was from Invitrogen (Carlsbad, CA, USA). Glycogen phosphorylase b was isolated from rabbit skeletal muscle according to the method of Fischer and Krebs.
Enzyme activity in the direction of glycogen synthesis was assayed. Kinetic data were collected using the muscle phosphorylase b (dephosphorylated, GPb) isoform. […] Enzymatic activities were presented in the form of a double-reciprocal plot (Lineweaver-Burk). The plots were analysed by a non-linear data analysis program. The inhibitor constants (Ki) were determined by secondary plots, replotting the slopes from the Lineweaver-Burk plot against the inhibitor concentrations. The means of standard errors for all calculated kinetic parameters averaged to less than 10% [78, 79].

Q: For `OC[C@H]1O[C@@H](c2noc(Cc3ccccc3)n2)[C@H](O)[C@@H](O)[C@@H]1O` [10a, 5-Benzyl-3-(β-D-glucopyranosyl)-1,2,4-oxadiazole], which IC50 is on record?
A: > 625 µM

Q: `OC[C@H]1O[C@@H](c2nnc(Cc3ccccc3)o2)[C@H](O)[C@@H](O)[C@@H]1O` [13a, 5-Benzyl-2-(β-D-glucopyranosyl)-1,3,4-oxadiazole] was tested. Which IC50 did it give?
A: > 625 µM

Q: Which IC50 does the source give for `OC[C@H]1O[C@@H](c2nccc(Cc3ccccc3)n2)[C@H](O)[C@@H](O)[C@@H]1O` [16a, 4-Benzyl-2-(β-D-glucopyranosyl)pyrimidine] here?
A: > 625 µM

Q: How did the IC50 turn out when `COc1ccc(Cc2ccnc([C@@H]3O[C@H](CO)[C@@H](O)[C@H](O)[C@H]3O)n2)cc1` [16b, 2-(β-D-Glucopyranosyl)-4-(4-methoxybenzyl)pyrimidine] was run?
A: > 625 µM

Q: For `OC[C@H]1O[C@@H](c2nc(Cc3ccccc3)n[nH]2)[C@H](O)[C@@H](O)[C@@H]1O` [19a], which IC50 is on record?
A: > 625 µM
